Patent publication US10035989B2, “Method for producing polyunsaturated fatty acids in transgenic plants” (BASF Plant Science GmbH, priority 2004, dated 2018)
Read-outs that look alike come from different tables or passages of the source.

What was measured:
OtDes6.1 (Δ6-desaturase) = experiment: Substrate specificity of the desaturase OtDes6.1 in yeast (feeding, GLC of FAMEs); conditions: conversion rate of the substrate fed to yeast with pYES2-OtDes6.1; mean (n=3)
Source text: The Saccharomyces cerevisiae strain 334 was transformed by electroporation (1500 v) with the vector pYES2.1-OtDes6.1. A yeast which was transformed with the blank vector pYES2 was used as the control. The transformed yeasts were selected on complete minimal dropout uracil medium (CMdum) agar plates supplemented with 2% glucose. After the selection, in each case three transformants were selected for the further functional expression.
To express the OtDes6.1 desaturase, precultures of in each case 5 ml of dropout uracil CMdum liquid medium supplemented with 2% (w/v) raffinose were inoculated with the selected transformants and incubated for 2 days at 30° C., 200 rpm. 5 ml of CMdum liquid medium (without uracil) supplemented with 2% raffinose and 300 μm of various fatty acids were then inoculated with the precultures to an OD600 of 0.05. Expression was induced by addition of 2% (w/v) galactose. The cultures were incubated for a further 96 hours at 20° C. […]
The yeasts which had been transformed with the vector pYES2-OtDes6.1 were cultured in minimal medium in the presence of the fatty acids detailed. […] Thereafter, the FAMEs were analyzed via GLC. […] The activity corresponds to the conversion rate calculated using the formula [substrate/(substrate+product)*100].

ELO(XI) elongase = experiment: Expression of ELO(XI) in yeast (feeding, GLC of FAMEs); type: cell-based, Xenopus laevis; conditions: amounts fed: in each case 250 μM
Procedure: (§1) The yeasts were subsequently plated onto complete uracil dropout minimal medium supplemented with 2% glucose.
(§2) Fatty acid methyl esters (FAMEs) were prepared from the yeast cell sediments by acid methanolysis. […] The FAMEs were extracted by twice extracting with petroleum ether (PE). […] (holding).
(§3) Thereafter, the FAMEs were analyzed via GLC.

ELO(Ci) elongase = experiment: Expression of ELO(Ci) in yeast (feeding, GLC of FAMEs); type: cell-based, Ciona intestinalis; conditions: amounts fed: in each case 250 μM
Procedure: The yeasts were subsequently plated onto complete uracil dropout minimal medium supplemented with 2% glucose. […] Fatty acid methyl esters (FAMEs) were prepared from the yeast cell sediments by acid methanolysis. […] The FAMEs were extracted by twice extracting with petroleum ether (PE). […] (holding). […] Thereafter, the FAMEs were analyzed via GLC.

PtELO6 (Δ6-elongase) = experiment: Substrate specificity of PtELO6 in yeast (feeding, GLC of FAMEs); type: cell-based, Phaeodactylum tricornutum; conditions: fatty acids fed to yeast pYES2-PtELO6
OtElo1 (Δ5-elongase) = type: cell-based, Ostreococcus tauri; conditions: yeast transformed with pOTE1 (Table 18)
TL16y2 Δ5-elongase = experiment: Expression of TL16y2 in yeast (feeding experiments, GC); type: cell-based, Thraustochytrium ssp.
Procedure: as §1
(§4) The substrate specificity of BioTaurELO1 was determined after expression and feeding of various fatty acids (FIG. 6). […] After the fatty acids had been extracted from the yeasts, they were transmethylated and separated by gas chromatography. The elongation products originating from the two fatty acids which had been fed are identified by arrows.
The functionality and substrate specificity of TL16y2 were determined after expression and feeding of various fatty acids. […] The feeding experiments were carried out in the same manner as described for BioTaurELO1. The substrates which have been fed can be detected in large amounts in all transgenic yeasts. […] This means that the gene TL16y2 has been expressed functionally.

OtElo1.2 (Δ5-elongase) = type: cell-based, Ostreococcus tauri; conditions: yeast transformed with pOTE1.2 (Table 18)
BioTaurELO1 Δ5-elongase = type: cell-based, Thraustochytrium aureum ATCC34304
Procedure: as §1, §4

[1] = system: biosynthesis of DHA (OmElo3, Euglena gracilis Δ4-desaturase, Phaeodactylum tricornutum Δ5-desaturase); experiment: Reconstitution of the synthesis of DHA in yeast by coexpressing OmElo3, EgD4 and PtD5; type: cell-based, Saccharomyces cerevisiae
Procedure: The reconstitution of the biosynthesis of DHA (22:6 ω3) was carried out starting from EPA (20:5 ω3) or stearidonic acid (18:4 ω3) by coexpressing OmElo3 together with the Euglena gracilis Δ4-desaturase or the Phaeodactylum tricornutum Δ5-desaturase and the Euglena gracilis Δ4-desaturase. To this end, the expression vectors pYes2-EgD4 and pESCLeu-PtD5 were additionally constructed. The abovementioned yeast strain which is already transformed with pYes3-OmElo3 (SEQ ID NO: 55), was then transformed further with pYes2-EgD4, or simultaneously with pYes2-EgD4 and pESCLeu-PtD5. […] The cultures were subsequently incubated for a further 120 hours at 15° C.
The additional introduction of the EEgΔ4-desaturase led to the conversion of 22:5 ω3 into 22:6 ω3 DHA. After coexpression of OmElo3 and EgD4, up to 3% DHA was detected in yeasts.
In a further coexpression experiment, OmElo3, EgD4 and a Δ5-desaturase from P. tricomutum (PtD5) were expressed together. The transgenic yeasts were fed stearidonic acid (18:4 ω3) and analyzed (FIG. 4). OmElo3 elongated the fed fatty acid 18:4 ω3 to give 20:4 ω3 (60% elongation). The latter was desaturated by PtD5 to give 20:5 ω3. The PtD5 activity amounted to 15%. Furthermore, 20:5 ω3 was elongated by […] to give 22:5 ω3. Thereafter, the newly synthesized 22:5 ω3 was desaturated to give 22:6 ω3 (DHA). Up to 0.7% of DHA was obtained in these experiments.

OtElo2.1 (Δ6-elongase) = type: cell-based, Ostreococcus tauri
OtElo2 (Δ6-elongase) = type: cell-based, Ostreococcus tauri
OmElo3 elongase = experiment: Functional characterization of OmELO3 in yeast (fatty acid feeding, GLC of FAMEs); type: cell-based, Oncorhynchus mykiss; conditions: expression in yeast, different substrates
OmELO2 = experiment: Functional characterization of OmELO2 in yeast (fatty acid feeding, GLC of FAMEs); type: cell-based, Oncorhynchus mykiss; conditions: expression in yeast
TpELO3 (Δ6-elongase) = experiment: Expression of TpELO3 in yeast (feeding, GLC of FAMEs); type: cell-based, Thalassiosira pseudonana
Procedure: as §1, §2, §3

[2] = 250 μm fatty acid fed (Table 7)
[3] = fatty acid fed to yeast expressing BioTaurELO1

CC/C=C\C/C=C\C/C=C\CCCCCCCC(=O)O [18:3^Δ9,12,15, α-linolenic acid]
Activity in % (OtDes6.1 (Δ6-desaturase)): 64.6% | Conversion of the starting materials by ELO(XI) in % (ELO(XI) elongase): 3% | Conversion of the starting materials by ELO(Ci) in % (ELO(Ci) elongase): 25%

CCCCC/C=C\C/C=C\CC/C=C\CCCC(=O)O [18:3^Δ5,9,12, pinolenic acid (all-cis-5,9,12-octadecatrienoic acid)]
Conversion of the starting materials by ELO(XI) in % (ELO(XI) elongase): 13% | Conversion of the starting materials by ELO(Ci) in % (ELO(Ci) elongase): 38%

CC/C=C\C/C=C\C/C=C\C/C=C\C/C=C\C/C=C\CCC(=O)O [22:6^Δ4,7,10,13,16,19, docosahexaenoic acid]
Conversion of the starting materials by ELO(XI) in % (ELO(XI) elongase): 0% | Conversion of the starting materials by ELO(Ci) in % (ELO(Ci) elongase): 0%

CCCCC/C=C\C/C=C\C/C=C\C/C=C\CCCC(=O)O [20:4^Δ5,8,11,14, arachidonic acid]
conversion by PtELO6 (PtELO6 (Δ6-elongase)): not converted | Conversion of the starting materials by ELO(XI) in % (ELO(XI) elongase): 15% | Conversion rate of OtElo1 (in %) (OtElo1 (Δ5-elongase)): 10.8 ± 0.6% | conversion rate in % (TL16y2 Δ5-elongase; [2]): 20.3% | Conversion rate of OtElo1.2 (in %) (OtElo1.2 (Δ5-elongase)): 38.0% | Conversion of the starting materials by ELO(Ci) in % (ELO(Ci) elongase): 10% | conversion rate (BioTaurELO1 Δ5-elongase; [3]): 14.47%

CC/C=C\C/C=C\C/C=C\CCCCCCCCCC(=O)O [20:3^Δ11,14,17]
conversion by PtELO6 (PtELO6 (Δ6-elongase)): not converted | Conversion of the starting materials by ELO(XI) in % (ELO(XI) elongase): 13% | Conversion of the starting materials by ELO(Ci) in % (ELO(Ci) elongase): 8%

CCCCCC/C=C\CCCCCCCC(=O)O [16:1^Δ9, palmitoleic acid]
Conversion of the starting materials by ELO(XI) in % (ELO(XI) elongase): 0% | Conversion of the starting materials by ELO(Ci) in % (ELO(Ci) elongase): 0%

CC/C=C\C/C=C\C/C=C\C/C=C\CCCCC(=O)O [18:4^Δ6,9,12,15, stearidonic acid]
Conversion of the starting materials by ELO(XI) in % (ELO(XI) elongase): 20% | conversion rate in % (TL16y2 Δ5-elongase; [2]): 79.4% | elongation of 18:4 ω3 to 20:4 ω3 ([1]; coexpression of OmElo3, EgD4 and PtD5, fed 18:4 ω3): 60% | Conversion rate of OtElo2.2 (in %) (OtElo2.1 (Δ6-elongase); yeast transformed with pOTE2.1 (Table 19)): 70.4% | Conversion rate of OtElo2 (in %) (OtElo2 (Δ6-elongase); yeast transformed with pOTE2 (Table 19)): 21.1% | Conversion of the starting materials by ELO(Ci) in % (ELO(Ci) elongase): 3% | conversion rate (BioTaurELO1 Δ5-elongase; [3]): 65.66%

CCCCCCCCCCCCCCCCCC(=O)O [18:0]
Conversion of the starting materials by ELO(XI) in % (ELO(XI) elongase): 2% | Conversion of the starting materials by ELO(Ci) in % (ELO(Ci) elongase): 0%

eicosadienoic acid [20:2^Δ11,14]
conversion by PtELO6 (PtELO6 (Δ6-elongase)): not converted

CCCCC/C=C\C/C=C\CCCCCCCC(=O)O [18:2^Δ9,12, linoleic acid]
Conversion of the starting materials by ELO(XI) in % (ELO(XI) elongase): 3% | Conversion of the starting materials by ELO(Ci) in % (ELO(Ci) elongase): 23%

CCCCC/C=C\C/C=C\C/C=C\CCCCC(=O)O [18:3^Δ6,9,12, γ-linolenic acid]
Conversion of the starting materials by ELO(XI) in % (ELO(XI) elongase): 12% | conversion rate in % (TL16y2 Δ5-elongase; [2]): 74.9% | Conversion rate of OtElo2.2 (in %) (OtElo2.1 (Δ6-elongase)): 55.7% | Conversion rate of OtElo2 (in %) (OtElo2 (Δ6-elongase)): 15.3% | Conversion of the starting materials by ELO(Ci) in % (ELO(Ci) elongase): 10% | conversion rate (BioTaurELO1 Δ5-elongase): 65.28%

CC/C=C\C/C=C\C/C=C\C/C=C\C/C=C\CCCC(=O)O [20:5^Δ5,8,11,14,17, eicosapentaenoic acid]
Conversion of the starting materials by ELO(XI) in % (ELO(XI) elongase): 10% | Conversion rate of OtElo1 (in %) (OtElo1 (Δ5-elongase)): 46.8 ± 3.6% | conversion rate in % (TL16y2 Δ5-elongase; 50 μm fatty acid fed): 41% | conversion rate in % (TL16y2 Δ5-elongase; [2]): 8% | Conversion rate of OtElo1.2 (in %) (OtElo1.2 (Δ5-elongase)): 68.6% | elongation of 20:5 ω3 to 22:5 ω3 ([1]; yeast with pYes3-OmElo3 and blank vector pYes2, fed 20:5 ω3): 65% | Conversion of the starting materials by ELO(Ci) in % (ELO(Ci) elongase): 15% | conversion rate (BioTaurELO1 Δ5-elongase; [3]): 22.01% | conversion rate (BioTaurELO1 Δ5-elongase; when feeding GLA and EPA together): 9.99%

CCCCC/C=C\C/C=C\C/C=C\CCCCCCC(=O)O [20:3^Δ8,11,14, dihomo-γ-linolenic acid]
conversion by PtELO6 (PtELO6 (Δ6-elongase)): not converted | Conversion of the starting materials by ELO(XI) in % (ELO(XI) elongase): 5% | Conversion of the starting materials by ELO(Ci) in % (ELO(Ci) elongase): 10%

CCCCCCCCCCCCCCCC(=O)O [16:0]
Conversion of the starting materials by ELO(XI) in % (ELO(XI) elongase): 3% | Conversion of the starting materials by ELO(Ci) in % (ELO(Ci) elongase): 0%

CCCCCC=CCC=CCC=CCC=CCCCCCC(=O)O [22:4^Δ7,10,13,16, docosatetraenoic acid]
conversion by PtELO6 (PtELO6 (Δ6-elongase)): not converted | Conversion of the starting materials by ELO(XI) in % (ELO(XI) elongase): 0% | Conversion of the starting materials by ELO(Ci) in % (ELO(Ci) elongase): 0%

B1: OmELO3: elongase from Oncorhynchus mykiss, SEQ ID NO: 53 (protein)
chain: METFNYKLNMYIDSWMGPRDERVQGWLLLDNYPPTFALTVMYLLIVWMGPKYMRHRQPVSCRGLLLVYNLGLTILSFYMFYEMVSAVWHGDYNFFCQDTHSAGETDTKIINVLWWYYFSKLIEFMDTFFFILRKNNHQITFLHIYHHASMLNIWWFVMNWVPCGHSYFGASLNSFIHVLMYSYYGLSAVPALRPYLWWKKYITQVQLIQFFLTMSQTICAVIWPCDFPRGWLYFQIFYVITLIALFSNFYIQTYKKHLVSQKKEYHQNGSVASLNGHVNGVTPTETITHRKVRGD
modifications: Oncorhynchus mykiss; CDS (1)..(885): Delta-5 elongase
elongase activity (OmElo3 elongase): pronounced activity

B2: OmELO2: gene product from Oncorhynchus mykiss, SEQ ID NO: 51, expressed in yeast (protein)
chain: MASTWQSVQSMRQWILENGDKRTDPWLLVYSPMPVAIIFLLYLGVVWAGPKLMKRREPVDLKAVLIVYNFAMVCLSVYMFHEFLVTSLLSNYSYLCQPVDYSTSPLAMRMAKVCWWFFFSKVIELADTVFFILRKKNSQLTFLHVYHHGTMIFNWWAGVKYLAGGQSFFIGLLNTFVHIVMYSYYGLAALGPHTQKYLWWKRYLTSLQLLQFVLLTTHTGYNLFTECDFPDSMNAVVFAYCVSLIALFSNFYYQSYLNRKSKKT
modifications: Oncorhynchus mykiss; CDS (1)..(795): Delta-5 elongase
elongase activity (OmELO2): no elongase activity

B3: TpELO3: Δ6-elongase from Thalassiosira pseudonana, SEQ ID NO: 45 (protein, listed as Thalassiosira pseudonana)
chain: MDAYNAAMDKIGAAIIDWSDPDGKFRADREDWWLCDFRSAITIALIYIAFVILGSAVMQSLPAMDPYPIKFLYNVSQIFLCAYMTVEAGFLAYRNGYTVMPCNHFNVNDPPVANLLWLFYISKVWDFWDTIFIVLGKKWRQLSFLHVYHHTTIFLFYWLNANVLYDGDIFLTILLNGFIHTVMYTYYFICMHTKDSKTGKSLPIWWKSSLTAFQLLQFTIMMSQATYLVFHGCDKVSLRITIVYFVSLLSLFFLFAQFFVQSYMAPKKKKSA
modifications: CDS (1)..(819): Delta-5 elongase
% conversion, column 5 (TpELO3 (Δ6-elongase); fed 250 μm arachidonic acid): 0% | % conversion, column 6 (TpELO3 (Δ6-elongase); fed 250 μm eicosapentaenoic acid): 0% | % conversion, column 4 (TpELO3 (Δ6-elongase); fed 250 μm stearidonic acid): 85% | % conversion, column 3 (TpELO3 (Δ6-elongase); fed 250 μm γ-linolenic acid): 75%
